This is an account of results in patent publication US6489362B1, “Carnitine supplemented diet to prevent or alleviate ascites in broiler type poultry” (The Board of Regents for Oklahoma State University, priority 1999, dated 2002).

In assay [1] the test system is Male Cobb-500 broiler chicks. The assay is described as follows: Carnitine supplemented basal diets fed to broiler chicks in respiratory chambers to 14 days of age. The assay is classed as in vivo, broiler type chickens. The note with it: carnitine 200 ppm in basal diet; for Right ventricular weight (RV) / Ascites heart ratio (AHR), ratio of right ventricular mass to heart weight: 14 days of age; for Right ventricular weight (RV): control 0 ppm 0.21 ± 0.005; for Ascites heart ratio (AHR), ratio of right ventricular mass to heart weight: control 0 ppm 11.45 ± 0.24; for Hematocrit HCT: blood at week 2, control 0 ppm 36.11 ± 0.26. On the procedure: Materials and Methods: Male Cobb-500 broiler chicks (obtained from Cobb Vantress of Siloam Springs, Ark.) were used. The chicks were divided into 24 groups of […] chicks and randomly assigned to 60 open circuit respiratory chambers in three separate rooms. The chambers were housed in 3 thermostatically controlled rooms with 24 hour fluorescent light. Two levels of carnitine (0,200 ppm) were added to the basal diets (Table 1) and examined at two oxygen levels (17 and 20.6%).
(§1) Feed and drinking water were provided for ad-libitum consumption. Chamber temperature was maintained at 30° C. the first 5 days of age and at 27.8° C. thereafter. Chambers were checked twice daily for bird mortality. Body weights of each chick were obtained on day 0, 7 and 14. Feed consumption was determined on a chamber basis at the end of 1 and 2 weeks and feed efficiency calculated. Oxygen consumption and CO2 production was recorded continuously on all chambers. Five birds at the start of the experiment were sacrificed for determination of initial composition. At the end of the experiment (Week 2) blood samples were taken from the wing vain of all birds for hematocrit determination. Heart weight and right ventricular mass of each bird were measured and the carcass saved for determination of lean and fat tissue gain using a Hologic densitometer.
Breathing Air Supply and Analysis: Compressed dried air (7% relative humidity (RH), 20.6% O2) was delivered to chicks in the chamber via polyethylene tubes. It was necessary to provide low RH air to the chick chamber in order to hold the chamber at RH below 75%. The concentration of O2 and CO2 in air exiting each bird's chamber was monitored each day using Ametek oxygen (accuracy±0.02%) and carbon dioxide (accuracy±.03%) analyzers, respectively.
Statistical Analysis: Data were analyzed using the General Linear Model procedure of SAS (SAS, 1985). When a significant F statistic was noted by ANOVA, treatment means were compared using least square analysis variance.

A further assay relates to growing broilers. The conditions noted are these: cited from earlier work.
Another assay deals with broilers. The assay can be described thus: Further examples: hematocrit of broilers fed carnitine supplemented diets. Format: in vivo, broiler type chickens. The conditions noted are these: for Hematocrit HCT: control 0: 33.40. On the procedure: Materials and Methods: Male Cobb-500 broiler chicks (obtained from Cobb Vantress of Siloam Springs, Ark.) were used. The chicks were divided into 24 groups of […] chicks and randomly assigned to 60 open circuit respiratory chambers in three separate rooms. The chambers were housed in 3 thermostatically controlled rooms with 24 hour fluorescent light. […]
as §1

For `C[N+](C)(C)CC(O)CC(=O)[O-]` (stereo not drawn) [Carnitine, 3-hydroxy-4-N-trimethylaminobutyric acid], the results for the “Right ventricular weight (RV)” value in assay [1] and in assay [1] (listed as carnitine) were 0.20 ± 0.006 g and “significantly decreased”, respectively. Besides, the “Ascites heart ratio (AHR), ratio of right ventricular mass to heart weight” value in assay [1] is 10.57 ± 0.26%; in assay [1] (listed as carnitine) it was “significantly decreased”. Further, the “Hematocrit HCT” value in assay [1] is 35.41 ± 0.24%; in assay [1] (listed as carnitine), “significantly decreased”; in the assay on broilers (carnitine level 12.5 (ppm) in diet) it was 32.11%; in the assay on broilers (carnitine level 50 (ppm) in diet), 31.99%; in the assay with broilers (carnitine level 100 (ppm) in diet) it was 30.60%. Besides, the “Body weight gain (Gain)” value in assay [1] (broilers to 14 days of age) was 265 ± 3.1 g/b. Moreover, in assay [1] (broilers to 14 days of age), the “Gain:feed ratio” value is 0.76 ± 0.0. For the same compound, in the assay on growing broilers (carnitine in poultry diet, growing broilers (Cartwright 1986)), the “Effect on feed intake, body and abdominal fat weight, carcass or liver lipid levels” value was “no beneficial effect”. In addition, the “Ethanol metabolism in broilers” value in the assay on growing broilers (dietary carnitine (Smith et al. 1992)) was “retard ethanol metabolism”. In the assay with growing broilers (dietary carnitine (U.S. Pat. No. 5,362,753)), the Hatchability of eggs result is recorded as “increase the hatchability of eggs”. In addition, in the assay with broilers (diets at 12.5, 50 and 100 ppm carnitine), the “Hematocrit values, change versus unsupplemented diet” value was “beneficial and significant lowering”.
